From patent US20130189764A1, “SELECTIVE GROWTH MEDIA” (Oxide Limited, priority 2000, published 2013) come the findings set out here.

In brackets after ≈: the same amount, converted by molar mass. A value given as a limit tells only on which side of the number the result lay.

Experiment [1] has as its system Salmonella typhimurium OCC 626. The experiment can be described thus: mixed culture viable count in Nutrient Broth No. 2 (Example 9B). In kind it is cell-based. To be noted: 128 μg/ml, Nutrient Broth No. 2, mixed culture with Citrobacter, 37° C. How it is done: (§1) L-Pyroglutamyl-L-aminoethylphosphonate was added to Oxoid Nutrient Broth No. 2 (final concentration=128 μg/ml) contained in a universal tube in a water bath at 37° C. Citrobacter freundii OCC 370 and Salmonella typhimurium OCC 626 were grown overnight in Nutrient Broth No. 2 at 37° C., diluted 1 in 1000 in Maximal Recovery Diluent and amounts added to the Nutrient Broth to give final concentrations of about 10^4 cfu/ml of each organism. At intervals samples were taken and spread on XLD and the number of red colonies with black centres enumerated as Salmonella and yellow ones as Citrobacter.
(§2) The results are shown in FIG. 14, which is a graph of Log10 viable count (cfu/ml) against time (in hours). The plots for C. freundii are shown by lozenge symbols, whist those for S. typhimurium are shown by squares. Filled symbols and solid lines show results in the presence of Pyr-AEP, empty symbols and dotted lines show results in the absence of Pyr-AEP.

For experiment [2], the system named is Citrobacter freundii OCC 370. The experiment is described as above. In kind it is cell-based. The note with it: 128 μg/ml, Nutrient Broth No. 2, mixed culture with Salmonella, 37° C. How it is done:
as §1, §2

Experiment [3] has as its system Salmonella typhimurium and Salmonella worthington. The experiment can be described thus: Bioscreen growth in Lab-Lemco broth (Example 9A), Salmonella strains. In kind it is cell-based. The note with it: 128 μg/ml, Lab-Lemco broth pH 6.0, 37° C. How it is done: (§3) […] […] Plates were then covered, incubated at 37° C., and the opacity of the organism suspensions measured using a Bioscreen instrument (a semi-automated microbiological growth analyser, available from Thermolabsystems, Ashford, Middlesex, U.K.).
(§4) The results are shown in FIG. 13, which is a graph of optical density against time (in hours). The optical density readings were taken in “wide band” (wb) mode, i.e. using white light without any filter.

Experiment [4] deals with Citrobacter freundii OCC261. Put plainly: MIC from Bioscreen growth curves in various media (Example 13). In kind it is cell-based. The protocol:
(§5) In general, media containing a higher concentration of short chain peptides, for example hydrolysed casein, reduced the effectiveness of the inhibitor. Thus, Pyr-AEP was dissolved in deionised water (51.2 mg/ml), filter sterilised, and amounts of the solution added to autoclaved Bacteriological Peptone, Casein Hydrolysate, Lab-Lemco broth and Proteose Peptone (20 g/l; pH 7.3) to give a dilution series of 1,477, 739, 369, 185 μg/ml. Volumes ([…]) of these solutions were then pipetted into the wells of Bioscreen microtitre plates and 30 μl quantities of 1 in 10,000 dilutions of overnight cultures of Citrobacter freundii OCC 261, Enterobacter aerogenes OCC 720, Salmonella enteritidis OCC 723 and Salmonella virchow OCC 703 added. Plates were then covered, incubated at 37° C., and the opacity of the organism suspensions, measured using a Bioscreen instrument.

Experiment [5] concerns Salmonella virchow OCC703. The description is as above. Type of experiment: cell-based. The protocol:
as §5

For experiment [6], the system named is Salmonella enteritidis OCC723. The experiment is described as above. Type of experiment: cell-based. How it is done:
as §5

The test system of experiment [7] is Enterobacter aerogenes OCC720. The description is as above. Type of experiment: cell-based. How it is done:
as §5

For experiment [8], the system named is Citrobacter freundii, Enterobacter aerogenes, Enterobacter cloacae. Put plainly: Bioscreen growth in Lab-Lemco broth (Example 9A), other strains. In kind it is cell-based. To be noted: 128 μg/ml, Lab-Lemco broth pH 6.0, 37° C., other strains tested. How it is done:
as §3, §4

Experiment [9] has as its system E. faecalis 640 and S. aureus 106. The experiment can be described thus: selective recovery of S. aureus on DMSal agar seeded with E. faecalis (Example 18). The note with it: 20 μg/ml, DMSal agar with horse serum (50 ml/L), approximately 24 hours at 37° C. Type of experiment: cell-based, Enterococcus faecalis, Staphylococcus aureus. How it is done:
The effectiveness of sulfacetamide-β-D-galactoside as a selective agent for recovery of S. aureus in the presence of E. faecalis was tested. Sulfacetamide-β-D-galactoside (20 μg/ml) and horse serum (50 ml/L) was added to DMSal agar to make the test plates; DMSal agar without sulfacetamide-β-D-galactoside served as the control. All plates (with and without sulfacetamide-β-D-galactoside) were seeded with E. faecalis 640 and half of the total number of plates (with and without sulfacetamide-β-D-galactoside) were streaked with S. aureus 106. All plates were incubated for approximately 24 hours at 37° C.
As FIGS. 22a and 22b show, all plates without sulfacetamide-β-D-galactoside supported growth of E. faecalis.

Consider `C[C@H](NC(=O)[C@@H]1CCC(=O)N1)P(=O)(O)O` [Pyr-AEP, L-pyroglutamyl-L-1-aminoethylphosphonic acid], for which the “effect on growth (Log10 viable count)” value in experiment [1] was “no significant effect”; in experiment [2], “completely inhibitory”. Further, the “growth (optical density) in presence of the agent” value in experiment [3] is listed as “not inhibited”; in experiment [8], “inhibited”. Further, the Minimum inhibitory concentration in [4] (Citrobacter freundii OCC261, Bacteriological Peptone) was 168 µg/mL (≈ 0.711 mM); in [4] (Citrobacter freundii OCC261, Casein Hydrolysate) it was >1343 µg/mL; in [4] (Citrobacter freundii OCC261, Lab-Lemco), 168 µg/mL (≈ 0.711 mM); in [4] (Citrobacter freundii OCC261, Proteose Peptone) it was 1343 µg/mL (≈ 5.69 mM); in experiment [5] (Salmonella virchow OCC703, Bacteriological Peptone) it was 671 µg/mL (≈ 2.84 mM); in [5] (Salmonella virchow OCC703, Casein Hydrolysate), >1343 µg/mL. The Minimum inhibitory concentration in experiment [5] (Salmonella virchow OCC703, Lab-Lemco) was 1343 µg/mL (≈ 5.69 mM); in [5] (Salmonella virchow OCC703, Proteose Peptone), 1343 µg/mL (≈ 5.69 mM); in [6] (Salmonella enteritidis OCC723, Bacteriological Peptone), 671 µg/mL (≈ 2.84 mM); in experiment [6] (Salmonella enteritidis OCC723, Casein Hydrolysate) it was >1343 µg/mL; in [6] (Salmonella enteritidis OCC723, Lab-Lemco), 1343 µg/mL (≈ 5.69 mM); in [6] (Salmonella enteritidis OCC723, Proteose Peptone), 1343 µg/mL (≈ 5.69 mM). The Minimum inhibitory concentration in [7] (Enterobacter aerogenes OCC720, Bacteriological Peptone) was 671 µg/mL (≈ 2.84 mM); in experiment [7] (Enterobacter aerogenes OCC720, Casein Hydrolysate) it was >1343 µg/mL; in experiment [7] (Enterobacter aerogenes OCC720, Lab-Lemco), 336 µg/mL (≈ 1.42 mM); in [7] (Enterobacter aerogenes OCC720, Proteose Peptone), >1343 µg/mL.

With `CC(=O)NS(=O)(=O)c1ccc(N[C@@H]2O[C@H](CO)[C@H](O)[C@H](O)[C@H]2O)cc1` [sulfacetamide-β-D-galactoside], in experiment [9], the “colonies observed on plates seeded with E. faecalis and streaked with S. aureus” value is given as “only colonies of S. aureus were observed”.
